Activity data for one compound are collected here from ChEMBL document CHEMBL5257089, “Gamabufotalin Induces Apoptosis and Cytoprotective Autophagy through the mTOR Signaling Pathway in Hepatocellular Carcinoma” (J Nat Prod, 2023).

For this experiment, the system named is Huh-7. The experiment in a line: Induction of apoptosis in human Huh-7 cells assessed as condensed nuclei at upto 25 uM incubated for 48 hrs by Hoechst33258 staining based fluorescence microscopy. In kind it is functional, cell-based.

The source made the active and inactive calls. The calls are words filed in the database; no cut-off is given here.

Take `C[C@]12CC[C@H](O)C[C@H]1CC[C@@H]1[C@@H]2[C@H](O)C[C@]2(C)[C@@H](c3ccc(=O)oc3)CC[C@]12O` [GAMABUFOTALIN]: the result was Active.
